Results from patent publication US9353089B2, “Compositions and methods for the treatment of malaria” (Saint Louis University, priority 2013, dated 2016).
Read-outs that look alike come from different tables or passages of the source. Marks after values point to notes of the source that are not given here.

Assays:
[1] = Plasma compound concentration in the in vivo efficacy study; details: mice; for concentration at 1 h / concentration at 6 h / concentration at 24 h: NIH, mouse, plasma; for concentration at 1 h: 1 h post last dose on Day 3; for concentration at 6 h: 6 h post last dose on Day 3; for concentration at 24 h: 24 h post last dose on Day 3
[2] = target: recombinant human BACE1 (Homo sapiens, UniProt P56817); experiment: β-Secretase (BACE1) enzyme inhibition FRET assay; type: biochemical
Chain of recombinant human BACE1 (P56817 46-501 limits assumed): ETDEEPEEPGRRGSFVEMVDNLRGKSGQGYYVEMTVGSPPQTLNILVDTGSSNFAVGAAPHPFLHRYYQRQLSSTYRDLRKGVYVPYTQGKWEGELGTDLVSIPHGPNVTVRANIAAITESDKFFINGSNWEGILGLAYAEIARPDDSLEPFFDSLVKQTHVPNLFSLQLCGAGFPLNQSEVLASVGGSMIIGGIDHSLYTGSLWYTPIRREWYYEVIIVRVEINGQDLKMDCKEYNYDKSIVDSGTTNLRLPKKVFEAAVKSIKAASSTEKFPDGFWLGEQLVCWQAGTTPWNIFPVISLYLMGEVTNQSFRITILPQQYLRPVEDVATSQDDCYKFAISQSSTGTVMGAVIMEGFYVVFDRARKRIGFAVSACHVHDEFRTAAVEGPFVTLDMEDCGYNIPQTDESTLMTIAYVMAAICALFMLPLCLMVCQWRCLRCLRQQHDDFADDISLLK
Outline: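 FRET cleavage by rhBACE1 with substrate at 20 μM final, 60 min at room temperature. Time-resolved fluorescence read at Ex/Em 360/460 nm. IC50 obtained by non-linear regression.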

[3] = RLM metabolic stability assay; type: in vitro ADME; details: pH 7.4, rat liver microsomes, read-out: RLM t1/2
Method: In this protocol, the metabolic stability of compounds at 1 μM was determined in Mouse Liver Microsome (MLM), rat liver microsomes (RLM) or human liver microsomes (HLM). […]. After incubation at 37° C. for a specific time period (0, 5, 10, 20 and 30 min), the reaction was terminated by the addition of 200 μL ice cold acetonitrile containing internal standard (100 ng/mL) after 100 μL aliquots of reaction mixture was removed. The quenched reaction mixtures were centrifuged at 3200 rpm for 5 min, and 100 μL of the supernatant were transferred to 96-well deep plate. The samples in 96 well plate were analyzed by LC-MS/MS using an Applied Biosystems-Sciex model API 3000 mass spectrometer. The data were analyzed using the following equations. […]

[4] = system: HepG2 cells; experiment: HepG2 cytotoxicity assay; type: cell-based; details: Homo sapiens, 72 hours
Method: HepG2 cells (ATCC Cat. No. HB-8065) were maintained in DMEM supplemented with 10% fetal bovine serum and L-glutamine. Cells were grown at 37° C. and 5% CO2 on flasks coated with poly-d-lysine. To assess compounds for potential cytotoxic properties cells were plated at 10,000 cells per well on 96-well poly-d-lysine plates at 10,000 cells per well. HepG2 cells were allowed to adhere for at least 4 hours prior to application of test compounds. Cells were incubated with test compounds for 72 hours before measuring cellular viability. Cellular viability was measured using PrestoBlue® Cell Viability Reagent (Life Technologies). Briefly, 11 μL of 10× PrestoBlue reagent was added to 100 μl in each assay well. Cells were incubated at 37° C. and 5% CO2 for 30 minutes prior to reading on Tecan Safire2, excitation at 560 nm, 10 nm bandwidth and emission at 590 nm, 10 nm bandwidth. GraphPad Prism 5.0 (GraphPad Software, Inc., USA) was used to generate IC50 values via non-linear regression analysis.

[5] = system: Plasmodium chabaudi ASS and ASCQ strains; experiment: In vivo antimalarial efficacy 4-day suppressive test; details: NIH mice, Day 4 postinoculation
Method: Briefly, NIH mice (n=8 per group) were inoculated i.p. with 2×10^7 parasitized (Plasmodium chabaudi ASS or ASCQ) red blood cells. […] Groups (n=6) including a vehicle control and chloroquine (CQ) as a reference drug were included. Parasitemia levels were determined on the day following the last treatment (Day 4).

[6] = target: recombinant human Cathepsin E (Homo sapiens (Human), UniProt P14091); experiment: Cathepsin E enzyme inhibition FRET assay; type: biochemical; details: Table 8; read-out: CatE IC50
Chain of recombinant human Cathepsin E (P14091 54-396): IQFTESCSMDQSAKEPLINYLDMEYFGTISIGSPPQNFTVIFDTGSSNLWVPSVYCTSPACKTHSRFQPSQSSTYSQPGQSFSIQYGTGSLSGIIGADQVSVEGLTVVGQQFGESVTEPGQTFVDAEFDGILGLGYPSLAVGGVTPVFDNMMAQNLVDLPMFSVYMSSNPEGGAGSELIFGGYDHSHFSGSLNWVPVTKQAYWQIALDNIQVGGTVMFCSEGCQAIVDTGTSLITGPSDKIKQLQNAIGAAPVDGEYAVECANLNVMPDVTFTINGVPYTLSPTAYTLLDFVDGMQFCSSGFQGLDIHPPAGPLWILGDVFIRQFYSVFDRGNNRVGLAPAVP
Method: (§1) The enzymatic inhibition activity assays were determined using the fluorescence resonance energy transfer (FRET) assay. The assays were performed in a 384-well plate format. […] The concentration of Cathepsin D was 20 ng/μL, and 1 ng/μL of Cathepsin E was used. CatD and CatE were activated by incubation in assay buffer (0.1 M NaOAc, 0.2 M NaCl, pH 3.5) at room temperature for 30 min. Subsequently, the rhBACE-1 substrate (R&D Systems, catalog# ES004), the Cathepsin D and Cathepsin E substrate (R&D Systems, Catalog # ES001) were added accordingly to final concentration 20 μM to initiate the reaction. After 60 min incubation at room temperature, the time-resolved fluorescence at Ex/Em=360 nm/460 nm was measured on an EnVision multilabel plate reader (Perkin-Elmer). The analytical software, GraphPad Prism 5.0 (GraphPad Software, Inc., USA) was used to generate IC50 values via non-linear regression analysis, which are reported in Tables 8-13 below as BACE1 IC50 values.

[7] = target: recombinant human Cathepsin D (Homo sapiens (Human), UniProt P07339); experiment: Cathepsin D enzyme inhibition FRET assay; type: biochemical; details: Table 8; read-out: CatD IC50
Chain of recombinant human Cathepsin D (P07339 65-412): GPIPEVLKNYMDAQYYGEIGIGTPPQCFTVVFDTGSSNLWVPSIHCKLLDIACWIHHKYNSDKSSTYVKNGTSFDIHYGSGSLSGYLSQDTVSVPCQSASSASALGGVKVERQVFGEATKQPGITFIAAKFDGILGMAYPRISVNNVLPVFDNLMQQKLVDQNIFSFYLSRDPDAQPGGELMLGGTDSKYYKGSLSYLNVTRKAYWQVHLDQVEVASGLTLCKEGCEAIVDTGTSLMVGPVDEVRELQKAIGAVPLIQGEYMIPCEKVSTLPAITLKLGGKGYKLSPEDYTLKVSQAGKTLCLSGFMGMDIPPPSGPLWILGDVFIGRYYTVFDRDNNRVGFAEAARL
Method: as §1

[8] = target: Plasmepsin (PM-4; Plm IV) (Plasmodium falciparum (isolate 3D7), UniProt Q8IM16); experiment: Plasmepsin-4 enzyme inhibition assay; type: biochemical; details: Table 8
Chain of Plasmepsin (PM-4; Plm IV) (Q8IM16 122-449 limits assumed): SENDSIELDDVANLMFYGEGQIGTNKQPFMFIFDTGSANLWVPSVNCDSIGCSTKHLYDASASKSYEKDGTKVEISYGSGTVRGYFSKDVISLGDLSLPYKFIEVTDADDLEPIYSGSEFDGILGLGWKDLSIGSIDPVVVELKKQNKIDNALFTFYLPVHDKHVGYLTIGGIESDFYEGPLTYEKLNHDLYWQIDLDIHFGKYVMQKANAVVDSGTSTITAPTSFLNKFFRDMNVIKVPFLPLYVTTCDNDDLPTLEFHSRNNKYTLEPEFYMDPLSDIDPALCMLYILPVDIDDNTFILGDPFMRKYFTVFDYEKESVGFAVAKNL
Method: Plasmepsin-2 (PM-2; Plm II) and Plasmepsin (PM-4; Plm IV) expression and purification was performed following the published protocols (Istvan E S and Goldberg D E, 2005). The final purified protein was activated by diluting the protein to 0.3 mg/mL in activating buffer (0.1 M citrate pH 4.5, 0.1% Tween-20, 50 mM dithiothreitol) and incubated at room temperature for 40 min, then the activated enzyme was diluted in assay buffer (50 mM sodium acetate pH 4.7, 0.01% Tween-20). The enzymatic inhibition reaction was performed in 384 well plates with a total volume of 20 μl. 10 μl of diluted PM-2 or PM-4 enzyme was added to the 384-well plate except blank wells (blank wells add 10 μL of assay buffer) and 20 nL of serials of diluted 1000× compounds were added to the wells with 520 Echo® Liquid Handling System (Labcyte Inc.). 10 μL PM-2 peptide substrate (AnaSpec, Cat#, 62050) with assay buffer was then added to final concentration of 20 μM to start the reaction. After incubation the reaction at room temperature for 60 min, the fluorescence intensity at Ex/Em=360 nm/535 nm was measured using EnVision multilabel plate reader (Perkin-Elmer). The IC50 values were obtained using Graph Pad Prism 4 and are reported in Tables 8 and 9 below as PM-2 IC50 values.

[9] = 100 mpk orally once daily for four days

**Q.** Which concentration at 1 h ([1]; 100 mg/kg, 100 mpk oral) does the source give for `COc1ccc(C2(c3ccc(OC)cc3)NC(=N)N(CC3CCOCC3)C2=O)cc1` [Example 275, 2-imino-5,5-bis(4-methoxyphenyl)-3-(oxan-4-ylmethyl)imidazolidin-4-one] here?
**A.** Its concentration at 1 h is 10400 ng/mL.

**Q.** What about the concentration at 6 h ([1]; 100 mg/kg, 100 mpk oral) of the same compound?
**A.** Its concentration at 6 h is 3030 ng/mL.

**Q.** And the concentration at 24 h ([1]; 100 mg/kg, 100 mpk oral)?
**A.** The concentration at 24 h was 123 ng/mL.

**Q.** And the IC50 ([2]; Table 8, read-out: BACE IC50)?
**A.** The IC50 was 2070 nM.

**Q.** And the IC50 ([2]; Table 13, read-out: BACE1 IC50)?
**A.** Its IC50 is 2070 nM.

**Q.** What about the half-life at 1 μM [3] of the same compound?
**A.** Its half-life at 1 μM is 35 min.

**Q.** And the IC50 [4]?
**A.** Its IC50 is 30000 nM.

**Q.** And the “% Inhibition of parasitemia” value [5, 9]?
**A.** The value was 41%.

**Q.** What about the IC50 [6] of the same compound?
**A.** The IC50 was 841 nM.

**Q.** And the IC50 [7]?
**A.** Its IC50 is 934 nM.

**Q.** And the IC50 [8]?
**A.** The IC50 was 59 nM.

**Q.** Which results are given for `COc1ccc(C2(c3ccc(OC)cc3)NC(=N)N(C3CCOCC3)C2=O)cc1` [Example 176, 2-imino-5,5-bis(4-methoxyphenyl)-3-(oxan-4-yl)-imidazolidin-4-one]?
**A.** concentration at 24 h ([1]; 110 mg/kg, 110 mpk oral): 29 ng/mL; Plasma [compound] (ng/mL), determined at 30 min post dose ([1]; 110 mpk oral, 30 min post last dose on Day 3): 4140^e ng/mL; IC50 ([2]; Table 8, read-out: BACE IC50): ~10000 nM; IC50 ([2]; Table 13, read-out: BACE1 IC50): ~10100 nM; half-life at 1 μM [3]: 83 min; IC50 [4]: > 50000 nM; % Inhibition of parasitemia ([5]; 110 mpk orally once daily for four days): 63%; IC50 [6]: 511 nM; IC50 [7]: > 10000 nM; IC50 [8]: 18 nM

**Q.** What does the source list for `COc1ccc(C2(c3ccc(OC)cc3)NC(=N)N(C3CCN(C(=O)OC(C)(C)C)CC3)C2=O)cc1` [Example 206, tert-butyl 4-[2-imino-4,4-bis(4-methoxyphenyl)-5-oxoimidazolidin-1-yl]piperidine-1-carboxylate]?
**A.** concentration at 1 h ([1]; 100 mg/kg, 100 mpk oral): 2520 ng/mL; concentration at 6 h ([1]; 100 mg/kg, 100 mpk oral): 2190 ng/mL; concentration at 24 h ([1]; 100 mg/kg, 100 mpk oral): 7 ng/mL; IC50 ([2]; Table 8, read-out: BACE IC50): 6010 nM; half-life at 1 μM [3]: 14 min; IC50 [4]: 8000 nM; % Inhibition of parasitemia [5, 9]: 73%; IC50 [6]: 233 nM; IC50 [7]: 520 nM; IC50 [8]: 10 nM
